Data on four compounds can be found in US4524070A, “Aminated derivatives of pyridazine substituted in 6 position by a heterocycle or an alicycle and compositions, said derivatives being active on the central nervous system” (Sanofi, priority 1983, dated 1985).

For assay [1], the system named is ptosis induced by reserpine. As to the kind of experiment: Antagonism of ptosis induced by reserpine. As to conditions: Mus musculus, ip, simultaneous with reserpine 2 mg/kg i.v.; read 1 hour after; batches of 10 mice. It is filed as in vivo, mouse (female CDI Charles River). The protocol: Antagonism of ptosis induced by reserpine This test described by GOURET (Journal de Pharmacologie, Paris, 1973, 4 (1), 105-128) was carried out on the female CDI (Charles River) mouse weighing 20±1 g. Reserpine induces a ptosis 1 hour after its intravenous administration; certain antidepressants oppose this ptosis. The following protocol was chosen. The substances to be studied were administered i.p. The reserpine was administered simultaneously by the intravenous route at the dose of 2 mg/kg. 1 hour after administration of reserpine, the number of animals not presenting ptosis was noted. This test was carried out on batches of 10 mice and the percentage of animals not presenting ptosis was determined. The results are expressed in effective dose 50 (ED50) or dose preventing ptosis in 50% of the animals treated.

Assay [2] concerns central serotoninergic transmission. As to the kind of experiment: Potentialization of the head twitches induced by 5-hydroxytryptophane (5-HTP test). Format: in vivo, mouse (female CDI Charles River). As to conditions: 1 hour before 5-hydroxytryptophane 200 mg/kg i.p., % with respect to control mice. The protocol: Potentialization of the head twitches induced by 5-hydroxytryptophane
The 5-hydroxytryptophane, precursor of the 5-hydroxytryptamine, induces in the mouse typical behaviour characterized by sudden head twitches.
At time zero, the product to be studied is administered by the intraperitoneal route then, 1 hour afterwards, a single dose (200 mg/kg) of 1-5-hydroxytryptophane in suspension in distilled water is in turn administered by the same route. Each animal (female CDI Charles River mouse weighing from 22 to 24 g) is immediately placed in a cylindrical glass beaker. The number of head twitches is counted for 20 minutes.
For each dose of the product to be tested, batches of 10 animals are experimented on, in comparison with a control batch which receives only the vehicle.
The results are expressed in % with respect to the average score obtained in the control mice.

For the next assay, the target named is T1, monoamine oxydase A (Rattus norvegicus, UniProt P21396).
T1 construct: using the striatum of rate as source of enzyme; from tissue; host or cells: rat striatum homogenate
T1 sequence (P21396 1-526): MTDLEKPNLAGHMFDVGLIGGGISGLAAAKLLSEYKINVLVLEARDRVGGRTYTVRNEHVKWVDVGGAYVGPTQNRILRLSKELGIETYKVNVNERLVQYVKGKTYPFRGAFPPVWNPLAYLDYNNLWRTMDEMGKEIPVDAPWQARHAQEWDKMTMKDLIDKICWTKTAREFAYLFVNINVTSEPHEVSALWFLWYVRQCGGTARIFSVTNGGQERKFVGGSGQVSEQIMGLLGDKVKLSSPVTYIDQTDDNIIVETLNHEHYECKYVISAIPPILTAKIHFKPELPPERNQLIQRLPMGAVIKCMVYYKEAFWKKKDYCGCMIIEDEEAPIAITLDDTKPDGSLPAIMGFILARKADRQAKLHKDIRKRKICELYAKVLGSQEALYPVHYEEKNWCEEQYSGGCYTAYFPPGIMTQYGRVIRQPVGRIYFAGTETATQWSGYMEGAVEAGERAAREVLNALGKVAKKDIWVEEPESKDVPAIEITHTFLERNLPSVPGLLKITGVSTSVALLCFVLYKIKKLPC
Nature of the assay: Measurement of the MAO A activity in vitro. It is filed as biochemical. As to conditions: rat striatum, 14C 5-hydroxytryptamine 480 μM, pH 7.40, 10 minutes. The protocol: Measurement of the MAO A activity in vitro
After dissection, the tissues are homogenized in 16 volumes (weight per volume) of iced phosphate buffer (0.1M, pH=7.40). […] The acid metabolites are extracted in 7 ml of a toluene/ethyl acetate (1:1, vol/vol) mixture then counted by liquid scintillation. The concentration of the product tested which inhibits the control activity by 50% (I.C.50) is determined graphically.

A further assay relates to dopaminergic activity. As to the kind of experiment: Rotations test: behaviour of rotation after unilateral lesion of the striatum (dopaminergic activity). Format: in vivo, mouse (female Charles River CDI). As to conditions: 1 hour after administration, counted for 2 minutes. The protocol:
This was studied by analysis of the behaviour of rotation in the mouse after unilateral lesion of the striatum (P. Protais et al., J. Pharmacol., 1976, 7, 251).
Female Charles River CDI mice weighing from 20 to 24 g were previously subjected to a unilateral lesion of the striatum by stereotaxic injection of 6-hydroxydopamine at the rate of 8 mcg per animal. One week after this operation, the products to be studied were administered by the intraperitoneal route to groups of 7 mice. 1 hour after administration of the product, the number of rotations is determined for a period of 2 minutes. The rotations ispilateral with respect to the lesion are counted positively and the contralateral rotations are counted negatively.
The algebraic sum of the rotations for a group of treated animals is compared with that of the group of control animals having received only the vehicle (physiological serum).
The results are expressed in % variation of the rotations of the treated animals with respect to the control animals.

The target of assay [3] is cholinergic receptors of muscarinic type. Format: binding. As to conditions: rat cerebra without cerebellum, 0.05 nM QNB (^3 H), 25° C., 1 hour, pH 7.4; read-out: Bond with QNB (^3 H) IC50.
Where [4] appears, read: dose 10 mg/kg i.p., result in words.

pIC50: −log10 of the molar value.

Broadly, the ED50 is the midpoint of the dose-response relation. Read a low ED50 as greater potency. One may read the pIC50 as the IC50 on a negative log10 scale, so that one unit is a factor of ten. Consider `Cc1cc(-c2cccs2)nnc1NCCN1CCOCC1.Cl.Cl` [CM 30387, 3-morpholinoethylamino-4-methyl-6-(2-thienyl)pyridazine, dihydrochloride], for which the 50% effect level in assay [1] (ED50) was put at a dose of 4.8 mg/kg. Also, the “5-HTP test % variation” value in assay [2] (dose 8 mg/kg i.p., **p 0.01) came out at 632%. In addition, the “MAO A Inhibition IC50” value on monoamine oxydase A was found to be 10 mg/kg. The “Rotations test % variation” value with dopaminergic activity (setting [4]) is recorded as “Inactive”. In addition, the negative-log IC50 (pIC50) in assay [3] is 4.62.
The corresponding values for `Cc1cc(-c2ccsc2)nnc1NCCN1CCOCC1.Cl.Cl` [CM 30388, 3-morpholinoethylamino-4-methyl-6-(3-thienyl)-pyridazine, dihydrochloride] are 10.3 mg/kg, 647%, 7.8 mg/kg, “Inactive” and 4.74.
In turn, `Cc1cc(C2CCCCC2)nnc1NCCN1CCOCC1.Cl.Cl` [CM 30390, 3-morpholinoethylamino-4-methyl-6-cyclohexyl-pyridazine; dihydrochloride] yielded a 50% effective dose (ED50) in assay [1] of 4.5 mg/kg. In assay [2] (dose 7.5 mg/kg i.p., *p 0.05), the “5-HTP test % variation” value is reported as 219%. Further, the “Rotations test % variation” value with dopaminergic activity (setting [4]) is given as “Inactive”. Moreover, in assay [3], the negative-log IC50 (pIC50) is 4.85.
In assay [1], `Cc1cc(-c2ccccc2)nnc1NCCN1CCOCC1` [Minaprine, reference compound] registered a 50% effective dose (ED50) of 5 mg/kg. Also, in assay [2] (dose 10 mg/kg i.p., *p 0.05), the “5-HTP test % variation” value was 257%. Further, the “MAO A Inhibition IC50” value at monoamine oxydase A turned out to be 16 mg/kg. Also, the “Rotations test % variation” value with dopaminergic activity (dose 0.5 mg/kg i.p., vs control animals, **p 0.01) is recorded as -79%. Also, in assay [3], the pIC50 is 4.00.
